Results on six compounds are retold here after US12391660B2, “Heteroaromatic acetamide derivative, and preparation and use thereof” (Hangzhou Westan Pharmaceutical Technology Co., Ltd, priority 2019, dated 2025).

In test [1] the target is T1, human TRPA1 (Homo sapiens (Human), UniProt O75762). As to the kind of experiment: Inhibitory activity on human TRPA1 by conventional patch clamp assay. To be noted: HEK293 human TRPA1, 100 μM cinnamaldehyde. The test is classed as cell-based. An excerpt:
2. Inhibitory Activity on Human TRPA1 by Conventional Patch Clamp Assay
In order to compare the influences of different measuring methods on the inhibitory activity of compounds, a conventional patch clamp method was used to further measure the inhibitory activity of compounds 1, 11, 31, 50, and 78 on TRPA1. The principle and procedures of the conventional patch clamp assay could be found in the literature report of Chen et al [Chen et al. Pain 2011, 152(5):1165-72].
Evaluation of TRPA1 inhibitory activity of compounds was conducted using the HEK293 recombinant cell strain (Creative Biogene, NY) stably expressing human TRPA1. Cells were cultured in a DMEM/F12 (3:1, Thermo Fisher Scientific) medium (containing 5% calf serum, 2 mM glutamine and 20 mM HEPES) in an incubator at 37° C. and air humidity containing 5% CO2.
During the experiment, the adherent cells were placed in a recording room under the inverted microscope. All experiments were performed at room temperature. Each cell itself was used as a control thereof.
Test compounds at a final concentration were all prepared on the testing day and then dissolved in the extracellular fluid. The extracellular fluid was (mM): NaCl, 137; KCl, 4; CaCl2, 1.8; MgCl2, 1; HEPES, 10; glucose 10; pH 7.4 (NaOH titration). All the solutions of the test compounds and control compounds contained 0.3% DMSO.
The compounds were all perfused with a perfusion system by virtue of their own gravity. At least two cells were tested for each concentration of the compound. After the current became stable, the variation in magnitude of the current before and after the compound was used to calculate the blocking effect of the compound. 100 μM cinnamaldehyde was used as the positive control.
The cells were transferred to the perfusion tank and perfused with extracellular fluid. The intracellular fluid was: 130 mM K-aspartate; 5 mM MgCl2; 5 mM EGTA; 10 mM
HEPES; pH 7.2 (KOH titration). The intracellular fluid was stored in a small amount in a −80 degree refrigerator in batches, and thawed on the day of the experiment. The electrode was pulled with PC-10 (Narishige, Japan). Whole-cell patch clamp recording was adopted and noise was filtered at one-fifth of the sampling frequency.
The cells were clamped at 20 mV, and then depolarized to 80 mV with a square wave of 500 milliseconds to obtain the TRPA1 current (see FIG. 1).
This procedure was repeated every 3 seconds. Cells were patched in a normal extracellular fluid, current A was obtained via voltage procedure testing, and then perfusion was conducted with an extracellular fluid added with 100 μM cinnamaldehyde to activate TRPA1 current to obtain current B. After the current stabilized, elution was conducted with normal extracellular fluid and perfusion was conducted with an extracellular fluid added with 100 μM cinnamaldehyde and a compound at various concentrations to obtain current C. Finally, blocking rate of the compound was obtained according to […], see FIG. 2.
Data collection and analysis was conducted using pCLAMP 10 (Molecular Devices, Union City, CA). Current stabilization meant that the variation in the current with time was within a limited range. The magnitude of the current after stabilization was used to reflect the effect of the compound in this process.

Test [2] has as its target T1, human TRPA1. The test is described as follows: FLIPR assay of inhibitory activity on human TRPA1 (calcium ion flux fluorescence). In kind it is cell-based. To be noted: HEK293 cells stably expressing human TRPA1. The procedure: 1. FLIPR Assay of Inhibitory Activity on Human TRPA1
A calcium ion flux fluorescence method (FLIPR assay) was adopted to measure the inhibitory activity of compounds on human TRPA1 channel. The literature reports of Lee and Chen et al. may be referred to for the method [Lee et al. Br J Pharmacol 2008, 153 (8): 1739-1749] [Chen et al. Pain 2011, 152(5):1165-72].
A HEK293 recombinant cell strain stably expressing human TRPA1 (Creative Biogene, NY) was cultured in DMEM (Thermo Fisher Scientific, Shanghai) medium (containing 10% calf serum, 5 μg/ml Blasticidin and 400 ug/ml G418). The incubator was under a condition of 37° C. and air humidity with 5% CO2.
TRPA1 cells were seeded in a 96-well analysis plate at a density of 75,000 cells per well (100 ul/well), and cultured overnight in an incubator at 37° C. and 5% CO2. On the second day, incubation was continued overnight under the same condition to induce the expression of TRPA1 after the culture medium in each well was poured out and a fresh supplement with the same culture medium containing 0.1 μg/ml Tetracycline was added. The further next day, the culture medium was pour out, a DMEM culture solution (also containing 2.5 mM Probenicid) containing 5 μM Fluo-4 AM (Molecular Probes) was added to each well, and incubation was conducted at 37° C. for 1 hour.
The compound was dissolved in 100% DMSO to prepare a 30 mM stock solution which was stored at −20° C. On the day of use, the compound stock solution was thawed at room temperature. Each compound was subjected to 1:5 serial dilution using DMSO medium at a starting concentration of 30 μM with 9 concentration points on a 96-well plate. Each compound was diluted in duplicate for testing. Ruthenium Red was used as the positive control compound and the same dilution was carried out at a starting concentration of 3 μM.
The cell analysis plate was placed in an FLIPR instrument […], and the compound in the compound plate was added to the corresponding hole on the cell analysis plate (First addition) via an automatic program, and the calcium ion fluorescence signal was recorded to determine whether the compound had agonistic activity. After 10 minutes, CaCl2 (Second addition) was added a final concentration of 3 mM to each well to stimulate intracellular calcium flux signals. Ca^++-dependent fluorescence signal was monitored continuously at 538 nm wavelength to analyze the inhibitory activity of the compounds.
The data was collected and analyzed using a FLIPR program. The fluorescence peak value was used to evaluate the inhibitory (or agonistic) activity of the compounds at each concentration. EXCEL and PRISM programs were used to calculate the IC50 value of the compounds.

The next test relates to asthmatic rats. The test is described as follows: Ovalbumin-induced asthma rat model (HE staining, lung tissue inflammation area, airway inflammation score). The conditions noted are these: compared with the model group. In kind it is in vivo, SD rats. An excerpt: 4. Effects of Compounds on Ovalbumin-Induced Asthma in Mouse and Rat Models
SPF-grade SD male rats (purchased from Zhejiang Academy of Medical Sciences, license number SCXK (Zhejiang) 2019-0002) with a body weight of 160-180 g; and SPF-grade female BABL/c mice (purchased from Zhejiang Weitong Lihua Experimental Animals Technology Co., Ltd., license number SCXK (Zhejiang) 2019-0001) with a body weight of 16-18 g were used. The above animals were raised by the Experimental Animal Center of Zhejiang Academy of Traditional Chinese Medicine.
Formulation of compound solution: compound was vortexed in a solvent system, dissolved by ultrasound, and prepared into a solution at a corresponding concentration, which was prepared just before use (the solvent system was composed of 5% Solutol HS 15, 5% DMSO and 90% physiological saline).
BABL/c mice or SD rats were randomly divided into: normal control group, model control group, dexamethasone group (0.72 mg/kg), and the respective test compound groups (one group for each dose), 10 mice in each group; 6 rats in each group.
Sensitization of rats: On Day 1 and Day 8, the model control group and the respective drug administration groups were intraperitoneally injected with 1 ml of 10% OVA sensitizing solution, and the normal group was intraperitoneally injected with an equal volume of normal saline.
Rat: from Day 15, the dexamethasone group and the respective test compound groups were intraperitoneally injected, 20 minutes before challenge, with the corresponding drugs with an injection volume of 0.3 ml/100 g; the model control group was intraperitoneally injected, 20 minutes before challenge, with an equal volume of solvent system; and the normal control group was not treated. Administration was conducted for 7 consecutive days. […]
The rat was anesthetized with 10% urethane at 1.3 ml/100 g volume, and the left lung tissue was taken and fixed in 4% neutral formaldehyde, paraffin-embedded according to routine operation, sectioned for HE staining. […] NIS-Elements D 3.2 software was used to manually integrate and measure the total area of lung tissue sections and the inflammation area under all fields of view, the total areas under each field of view were accumulated, and the percentage of the cumulative area of inflammation in the total area was calculated, wherein the percentage of inflammation area=cumulative area of inflammation/total area×100%.
All data were expressed as mean±standard deviation (x±s), and the data were processed by SPSS 20.0 statistical software. […]

The subject of the next test is guinea pigs. To be noted: cough induced by acrolein, crotonaldehyde, cinnamaldehyde; cited from earlier work.
The test system of a further test is mouse model of COPD. To be noted: pretreatment of mice, cigarette smoke; cited from earlier work.
The test system of a further test is mouse asthma model. The conditions noted are these: cited from earlier work.

T1 sequence (O75762 whole entry): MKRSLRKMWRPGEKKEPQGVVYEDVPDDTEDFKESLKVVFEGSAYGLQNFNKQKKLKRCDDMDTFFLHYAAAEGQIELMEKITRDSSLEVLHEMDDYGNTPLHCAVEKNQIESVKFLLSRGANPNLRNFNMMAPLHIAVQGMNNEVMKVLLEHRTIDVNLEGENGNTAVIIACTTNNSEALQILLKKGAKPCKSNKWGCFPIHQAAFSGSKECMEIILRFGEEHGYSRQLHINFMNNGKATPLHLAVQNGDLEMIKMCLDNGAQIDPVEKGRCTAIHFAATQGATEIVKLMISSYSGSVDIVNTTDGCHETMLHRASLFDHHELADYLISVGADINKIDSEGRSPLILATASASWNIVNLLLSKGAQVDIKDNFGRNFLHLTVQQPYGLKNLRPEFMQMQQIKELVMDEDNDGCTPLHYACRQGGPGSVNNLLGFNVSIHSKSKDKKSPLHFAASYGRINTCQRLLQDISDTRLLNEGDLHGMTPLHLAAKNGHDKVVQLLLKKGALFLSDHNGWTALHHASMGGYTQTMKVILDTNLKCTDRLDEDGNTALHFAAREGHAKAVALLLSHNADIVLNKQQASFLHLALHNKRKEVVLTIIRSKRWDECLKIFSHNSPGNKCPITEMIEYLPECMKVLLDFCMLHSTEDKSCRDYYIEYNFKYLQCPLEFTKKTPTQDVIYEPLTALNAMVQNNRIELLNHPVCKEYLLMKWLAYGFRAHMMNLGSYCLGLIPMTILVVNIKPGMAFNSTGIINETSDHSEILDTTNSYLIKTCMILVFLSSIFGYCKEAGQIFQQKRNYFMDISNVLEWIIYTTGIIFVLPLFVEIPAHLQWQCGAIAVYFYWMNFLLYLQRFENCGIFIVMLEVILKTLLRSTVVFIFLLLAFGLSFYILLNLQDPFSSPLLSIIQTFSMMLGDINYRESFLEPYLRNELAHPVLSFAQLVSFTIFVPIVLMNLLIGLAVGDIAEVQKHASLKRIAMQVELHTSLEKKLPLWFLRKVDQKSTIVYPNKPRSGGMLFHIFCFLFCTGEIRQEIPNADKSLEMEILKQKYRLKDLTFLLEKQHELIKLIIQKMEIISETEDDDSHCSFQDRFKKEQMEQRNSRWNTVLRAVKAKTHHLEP

As for `N#Cc1ccc(NC2(C(=O)N3CCN(c4cccc(C(F)(F)F)n4)CC3)CCCC2)cc1` [Compound 11, 4-((1-(4-(6-(trifluoromethyl)pyridin-2-yl)piperazine-1-carbonyl)cyclopentyl)amino)benz onitrile], the IC50 against human TRPA1 [1] is 35 nM; at human TRPA1 [2], 19 nM.

On to `C[C@@H]1C[C@H]2[C@@H]3CCC4=CC(=O)C=C[C@]4(C)[C@@]3(F)[C@@H](O)C[C@]2(C)[C@@]1(O)C(=O)CO` [dexamethasone, reference compound], for which the “lung tissue inflammation and inflammatory cell infiltration around the airway (HE x40)” value in the test on asthmatic rats was “significant improvement”. For the compound `CC(C)c1ccc(NC(=O)Cn2cnc3c2c(=O)n(C)c(=O)n3C)cc1` [HC-030031], the cough response result in the test on guinea pigs is “significantly attenuate”. Further, the “plasma protein extravasation induced by CS” value in the test on mouse model of COPD is recorded as “protective effect”. For the compound `CC(C)(C)C1CCN(C(=O)C2Cc3cc(C#N)ccc3N2)CC1` (centres unmarked) [Compound 78, 2-(4-(tert-butyl)piperidine-1-carbonyl)-5-cyanoindoline], the IC50 against human TRPA1 [1] is 83 nM; at human TRPA1 [2], 53 nM. In the case of `Cn1c(=O)c2c(CC(=O)Nc3nc(-c4ccc(F)c(C(F)(F)F)c4F)cs3)csc2n(C)c1=O` [GRC17536], in the test on mouse asthma model, the acidophilic leukocytes entry was “reduce”; the “mucus secretion and airway hyperreactivity” value is “inhibit”. As for `N#Cc1ccc(OC2(C(=O)N3CCN(c4nccc(C(F)(F)F)n4)CC3)CCCC2)cc1` [Compound 50, 4-((1-(4-(4-(trifluoromethyl)pyrimidin-2-yl)piperazine-1-carbonyl)cyclopentyl)oxy)benz onitrile], the IC50 against human TRPA1 [1] was found to be 65 nM; on human TRPA1 [2], 28 nM.
